Experimental data as given in a melting point compilation (Tetko et al.; mined from patent text by program, amines drawn as free bases though some values may be those of a salt).

| melting point | Compound |
| --- | --- |
| 187 °C | CON(C)C(=O)c1cc2sc(C)c(N(C)S(=O)(=O)c3cccs3)c2[nH]1 |
| 250 °C | CCNC(=O)CC1CCN(Cc2cnc3cc(NC(=O)c4ccc(-c5ccc(Cl)cc5)cc4)ccc3c2)CC1 |
| 105 °C | COC(=O)c1cc(-c2ccc(C)cc2)c(O)c(C(C)(C)C)c1 |
| 108 to 110 °C | Clc1ccc(-c2ncc(C#Cc3ccccc3)s2)cc1 |
| 285 to 287 °C | CC1(C)Oc2ccc(C#N)cc2C(Nc2ccc(=O)[nH]c2)C1O (configuration not stated) |
| 122 to 125 °C | CCCCCCCCCCCCNC(=O)COc1ccc(O)cc1NCC(=O)O |
| 193 °C | CCOC(=O)c1c(O)c2cscc2[nH]c1=O |
| 135 to 138 °C | CN(CCc1[nH]c2ccccc2c1-c1ccccc1)C(=O)CCl |
| 151 to 152 °C | CS(=O)(=O)c1ccc(-c2sc(CC#N)nc2-c2ccc(F)cc2)cc1 |
| 136 to 138 °C | COc1ccc(Cn2ncc3c4c(cnc32)CN(S(=O)(=O)c2ccccc2)CC4)cc1 |
| 132 to 134 °C | CC(C)c1nc2ccccc2c(-c2ccc(F)cc2)c1CO |
| 122 to 123 °C | Cc1nc(N2CCN(CCC3CC3)C2=O)sc1C(=O)NCc1ccc(F)cc1 |
| 133 to 135 °C | CCCc1c(CSc2nnc(S)s2)ccc(C(C)=O)c1O |
| 158 to 161 °C | COc1ccc2c(c1)CCC1CCN(CO)C(=O)C(CC(C)N(C)C(C)C)=C21 (configuration not stated) |
| 134 to 135 °C | CC1(C)CN=C(c2cnc3ccccc3c2)c2ccccc2O1 |
| 160 °C | COc1cc2c(cc1OC)CN(CCCOc1ccc(NC(=O)c3cccc4c(=O)c5cccc(OC)c5[nH]c34)c(C)c1)CC2 |
| 146 to 148 °C | COc1ccc(-c2nc3n(c2-c2ccc(OC)cc2)CCC3)cc1 |
| 52 to 54 °C | Oc1ccccc1-n1cccc1 |
| 108 to 124 °C | CC(C(N)=O)c1ccc(C(=O)c2cccs2)cc1 (configuration not stated) |
| 106 to 108 °C | O=C(c1ccc(CCl)cc1)N1CCCCC1 |
| 89 to 91 °C | O=C1c2ccccc2C(=O)N1CCNOCc1ccccc1 |
| 195 to 197 °C | COCc1nc2c(N)nc3cc(OCc4ccccc4)ccc3c2n1CCc1ccccc1 |
| 58 to 66 °C | CC(C)C(=O)O[C@H]1[C@H](C)OC(=O)[C@@H](NC(=O)OC(C)(C)C)COC(=O)[C@@H]1Cc1ccc(F)cc1 |
| 102 to 104 °C | Fc1cc(Cl)ccc1-n1nc2c(c1Cl)CCC2 |
| 218 to 221 °C | CC(=O)C1(O)CCC2C3C=C(Cl)C4=CC(=O)OCC4(C)C3CCC21C (configuration not stated) |

| melting point | Compound |
| --- | --- |
| 217 to 219 °C | Fc1ccc(F)c(CN2CCNc3ncc(-c4ccc(N5CCOCC5)cc4)cc32)c1Cl |
| 50 °C | Oc1nsc(Cc2ccccc2)n1 |
| 186 to 188 °C | COc1ccc2c(c1)Sc1cc(OC)c(Cl)cc1C(=O)C2 |
| 272 to 282 °C | CC(=O)Nc1ccc(/C=C/C(=O)NCC(=O)Nc2ccc(Cl)c(COc3cccc4ccc(C)nc34)c2Cl)cn1 |
| 244 to 246 °C | CSc1ncc2c(n1)Nc1ccccc1-n1nnnc1-2 |
| 75 to 80 °C | CCOC1=NS(=O)(=O)N(C)C(Cl)=N1 |
| 74 to 76 °C | COC(=O)C(=CN1CCCC1)C(=O)c1cc(F)c(Cl)cc1Cl |
| 94 to 96 °C | Cc1cc(-c2ccnc(NCc3ccccc3)c2)n(-c2cccc(F)c2)n1 |
| 142 to 143 °C | Cn1cccc1-c1cc(O)c2ncccc2c1O |
| 198 °C | CCOCc1nc2c(N)nc3cc(N4CCCC4=O)cnc3c2n1CC(C)C |
| 202 to 203 °C | COc1cc(N)c(Cl)cc1C(=O)NCC12CCCN(CCC1)C2 |
| 126 to 128 °C | O=C1NCC2(CCN(C(=O)OCc3ccccc3)CC2)O1 |
| 162 to 164 °C | CC1CC(=O)NN=C1c1ccc(NCCN)c([N+](=O)[O-])c1 (configuration not stated) |
| 87 °C | CCOC(=O)CC(Nc1ccccc1)c1ccccc1 (racemic) |
| 85 to 86 °C | N#CC(CCCOc1ccccc1)(Cn1cncn1)c1ccccc1 (configuration not stated) |
| 204 to 205 °C | O=C(O)CC1c2ccccc2C(=O)N1c1ccccc1 (configuration not stated) |
| 190 to 192 °C | CN1N=CC=Cc2ccccc21 |
| 218 to 221 °C | O=C(Nc1ccc2c(c1)CCC2=O)c1cc(Cl)ccc1Cl |
| 114 to 115 °C | CCc1ccc2oc(=O)c([N+](=O)[O-])c(O)c2c1 |
| > 265 °C | Cc1ccc(C)n1-c1cc2[nH]c(=O)c(=O)n(CC(=O)O)c2cc1Cl |
| 107 to 109 °C | N#CCCN1CCC(C2(c3ccc(F)cc3)OCCO2)CC1 |
| 159 °C | Cc1cc2c(N=C3SCC4Cc5sccc5CN34)cccc2cn1 (racemic) |
| 110 to 114 °C | O=C(c1c(Cl)cccc1Cl)n1ccnc1-c1ccccc1 |
| 130 to 131 °C | O=[N+]([O-])c1cccc(C#Cc2c(F)c(F)nc(F)c2F)c1 |
| 132 to 136 °C | CC(C)(C)OC(=O)N1CCC(=CS(=O)(=O)NC(=O)c2cc(C(F)(F)F)cc(C(F)(F)F)c2)CC1 |

| melting point | Compound |
| --- | --- |
| 99 to 101 °C | Cc1ccc(S(=O)(=O)N[C@H](COS(=O)(=O)c2ccc(C)cc2)CC(C)C)cc1 |
| 75 °C | Cc1cc(Oc2ccc(C(F)(F)F)cc2Cl)cc(Cl)n1 |
| > 360 °C | O=[N+]([O-])c1cc2nc(O)c(O)nc2c2scnc12 |
| 65 to 66 °C | CNCc1nnc(-c2ccc3occ(-c4cccc(OC(F)(F)F)c4)c3c2)o1 |
| 173 to 176 °C | CC(C)(C)c1cc(SCN2CCN(CSc3cc(C(C)(C)C)c(O)c(C(C)(C)C)c3)C2=O)cc(C(C)(C)C)c1O |
| 110 to 113 °C | CC(=O)O[C@@H]1NC(=O)[C@H]1NC(=O)OCc1ccccc1 |
| 151 to 153 °C | Cc1cc(Cl)ccc1Oc1ccc(NC(=O)N2CCc3ccccc3CC2)cn1 |
| 177 to 178 °C | Cc1c(NC(=O)CC(C)(C)C)cc2c(c1C)OCC2c1ccc(C(C)C)cc1 (configuration not stated) |
| 96 to 97 °C | CCCC1=C(Br)c2cc3c(cc2C1)OCO3 |
| 228 to 230 °C | Nc1ccc(N2C(=O)c3ccc(Cl)cc3C2=O)c(CO)c1 |
| 81 to 94 °C | CCCCN(C(C)=O)C1CC(C)(C)N(OC(=O)C(C)(C)C)C(C)(C)C1 |
| > 300 °C | CCn1ncc2c3[nH]c4ccnn4c(=O)c3cnc21 |
| 43.8 °C | CCCCNC(=O)c1ccco1 |
| 113 to 114 °C | OC1(C#Cc2cccc(Cl)c2)CCCNC1 (configuration not stated) |
| 153 to 157 °C | O=CNc1nc(OCc2ccccc2)ncc1F |
| 196 to 197 °C | O=C(Nc1ccccn1)c1sc(Nc2ccccc2)c2c1CCc1cnoc1-2 |
| 182 to 184 °C | Cc1nc2c(C=O)cccn2c1[N+](=O)[O-] |
| 75 to 76 °C | O=C(CCCc1ccccc1)c1cccc(OCc2ccc3ccccc3c2)c1 |
| 37 to 39 °C | CC(C)(C)CCCCCCCCCCCC(=O)O |
| 219 to 221 °C | COc1cnc(-c2cccn3nc(C4(C5CCNCC5)C=CC(N)=CC4)nc23)cn1 (configuration not stated) |
| 90 to 91 °C | CCOC(=O)NCSSc1ccc([N+](=O)[O-])cc1C(Cl)(Cl)Cl |
| 220 to 223 °C | NCCCc1nc2c([nH]1)-c1ccccc1N(C(=O)c1ccc(NC(=O)c3ccccc3-c3ccccc3)cc1)CC2 |
| 104 to 105 °C | COC(=O)c1nc(C#N)ccc1OCc1ccccc1 |
| 114 to 117 °C | COc1ccccc1-c1ccc(S(=O)(=O)Nc2onc(C)c2Br)s1 |
| 95 to 117 °C | CC=CCn1c(C)c(C)c2cnnc(SCc3c(F)cccc3Cl)c21 |

| melting point | Compound |
| --- | --- |
| 153 to 155 °C | COC(=O)c1ccc(NC(C)=O)cc1NC(=O)NC(C)C |
| 156 °C | Nc1c([N+](=O)[O-])cnn1-c1c(Cl)cc(C(F)(F)F)c(F)c1Cl |
| 188 to 192 °C | O=C(Nc1ccc(C(F)(F)F)cc1)NC1CCN(S(=O)(=O)c2ccc(C(=O)O)cc2)CC1 |
| 209 to 210 °C | CN1C(C(=O)Nc2cncc(Cl)n2)=C(O)c2ccc3ccccc3c2S1(=O)=O |
| 243 to 244 °C | O=S(=O)(Nc1ccccc1Oc1cccc2cccnc12)c1ccc(F)cc1 |
| 133 to 135 °C | c1ccc2c(CCOc3cncc(N4CCNCC4)n3)c[nH]c2c1 |
| 170 to 171 °C | CC(C)(C)OC(=O)NNC(=O)c1ncc(OCc2ccccc2)c(OCc2ccccc2)c1CCl |
| 107 to 108 °C | CC(C)c1cc(C(C)C)c(NC(=O)CN2CCN(CCCSc3nc4ccccc4s3)CC2)c(C(C)C)c1 |
| 162 to 164 °C | CC(C)CC1(C(CCN2C(=O)c3ccccc3C2=O)C(=O)NO)CCN(Cc2ccccc2)C1=O (configuration not stated) |
| 74 to 76 °C | CCOC(=O)c1cc(=O)c(Oc2ccccc2OC)co1 |
| 206 to 210 °C | O=C1COc2cc(F)c(N3C(=O)C4=C(CCCC4)C3=O)cc2N1Cc1ccon1 |
| > 330 °C | O=C1c2ccccc2-c2[nH]nc(-c3ccc(Cl)cc3)c21 |
| 268 to 269 °C | CN1CCN(C2=Nc3ccccc3C(O)(c3ccccc3)C2(C)C)CC1 (configuration not stated) |
| 252 to 253 °C | O=C1CNc2ncc(I)cc2N1Cc1cc(C(F)(F)F)ccc1Cl |
| 146 to 149 °C | CC(C)(C)OC(=O)C=Cc1ccc(O)cc1C=NO |
| 64 to 66 °C | O=C(c1ccccc1Cl)c1cc(Cl)ccc1I |
| 60 °C | Clc1ccc(C2(CBr)OCC(c3ccccc3)O2)cc1 (configuration not stated) |
| 114 °C | CC(C)(C)NCCOc1ccccc1CCCc1cccc2[nH]ccc12 |
| 229 to 231 °C | CCc1cc(OCc2ccc3oc(-c4ccccc4C(=O)O)nc3c2)c2c(n1)CCCC2 |
| 152 to 154 °C | CCCc1ccc(-n2nc(Cl)cc2-c2ccc(S(C)(=O)=O)cc2)cc1N |
| 85 to 86 °C | CCOC(=O)C(O)c1ccc(C2CCCCC2)cc1 (configuration not stated) |
| 51 to 53 °C | CCN(c1nc(C)cc(N2CCSCC2)n1)c1ccc(C(C)C)cc1I |

| Compound | melting point |
| --- | --- |
| Ic1cnc(N2CCNCC2)nc1 | 39 to 40 °C |
| CN1Cc2c(C=NO)ncn2-c2ccc(F)cc2C1=O | 247 to 250 °C |
| COc1cc(CNC(=S)NC(COC(=O)C(C)(C)C)Cc2ccc(C(C)(C)C)cc2)ccc1O (configuration not stated) | 117 to 119 °C |
| CC12CC(O)C3(F)C(CCC4=CC(=O)C=CC43C)C1CC(O)C2=O (configuration not stated) | 227 to 228 °C |
| Cc1ncc2n1-c1ccc(Cl)cc1C(c1ccccc1F)NC2 (configuration not stated) | 200 to 203 °C |
